Results reported in patent publication US20080027001A1, “NOGO RECEPTOR FUNCTIONAL MOTIFS, PEPTIDE MIMETICS, AND MUTATED FUNCTIONAL MOTIFS RELATED THERETO, AND METHODS OF USING THE SAME” (priority 2006, published 2008).
Numbering of substitutions follows the chain as printed. Where “and” joins values, the source holds several entries; their conditions need not be identical. Equal values may be shown once.

How the values were obtained:
NgR1(310)-fc R151E = target: T1, NgR1(310)-fc R151E (Homo sapiens, UniProt Q9BZR6, R151E); assay: Analytical ultracentrifugation, R151E mutant receptor; format: binding
T1 construct: made in house; host or cells: mammalian expression vector
T1 sequence (Q9BZR6 27-310 R151E): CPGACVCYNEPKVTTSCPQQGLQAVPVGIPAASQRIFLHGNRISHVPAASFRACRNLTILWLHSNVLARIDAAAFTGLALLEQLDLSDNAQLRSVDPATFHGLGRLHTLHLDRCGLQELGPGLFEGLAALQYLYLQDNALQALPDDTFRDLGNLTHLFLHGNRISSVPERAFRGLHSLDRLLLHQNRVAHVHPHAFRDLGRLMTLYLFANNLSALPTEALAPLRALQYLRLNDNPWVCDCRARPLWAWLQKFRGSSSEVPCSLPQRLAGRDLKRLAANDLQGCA
From the text: (§1) Human Nogo Receptor 1 (NgR1)(310)-fc point mutants (FRG-1 (R151E); FRG-2 (R279E); FRG-3 (R199E), and FRG-4 (R151E/R279E/R199E)) were constructed by Genewiz (North Brunswick, N.J.) using their site-directed mutagenesis technology. The template used to construct all the described mutants was wild type human NgR1(310)-fc (SEQ ID NO:59), which was generated by fusing a nucleotide sequence corresponding to the first 310 amino acid of Human Nogo Receptor 1 to a human Fc fragment in a mammalian expression vector (the sequence of wild type NgR1(310)-fc and the expression vector is set forth in SEQ ID NO:60 and a schematic of the expression vector is shown in FIG. 11). […]
(§2) Sedimentation velocity experiments were performed on a Beckman XLI/XLA analytical ultracentrifuge. […] Scans were recorded at 20° C. with a rotor speed of 35,000 rpm, and the signal was detected at 230 nm with a spacing of 0.006 in the continuous mode. Sedimentation profiles were analyzed by the program Sedfit (Schuck (2000) Biophys. J. 78:1606-19) to obtain the sedimentation coefficient distributions. The solvent density (1.006) and partial specific volume (0.72) were calculated using the program Sednterp (Laue et al. (1992) Analytical Ultracentrifugation in Biochemistry and Polymer Science (Harding, S. E., Towe, A. J. and Horton, J. C., eds.) pp. 90-125, Royal Society of Chemistry, Cambridge, U.K). […]

[1] = test system: anti-hNgR AF 1208 antibody; assay: Analytical ultracentrifugation, specificity control; format: binding; details: 22 mM GT1b (data not shown)
Description: Sedimentation velocity experiments were performed on a Beckman XLI/XLA analytical ultracentrifuge. Wild type NgR(310)-fc (0.21 μM to 0.38 μM final) was added to ganglioside at concentrations increasing from 0 to 48 μM. Mutant protein used in the sedimentation velocity experiments corresponded to the column fraction of greatest purity based on SDS gel analysis. […] The solution (400 μL) was loaded into two-channel (1.2 cm path length) carbon-Epon centerpieces in an An-50-Ti rotor. Scans were recorded at 20° C. with a rotor speed of 35,000 rpm, and the signal was detected at 230 nm with a spacing of 0.006 in the continuous mode. Sedimentation profiles were analyzed by the program Sedfit (Schuck (2000) Biophys. J. 78:1606-19) to obtain the sedimentation coefficient distributions. The solvent density (1.006) and partial specific volume (0.72) were calculated using the program Sednterp (Laue et al. (1992) Analytical Ultracentrifugation in Biochemistry and Polymer Science (Harding, S. E., Towe, A. J. and Horton, J. C., eds.) pp. 90-125, Royal Society of Chemistry, Cambridge, U.K).
The peptide competition studies, together with the direct binding assays, have implicated the FRG motif within loop 2 as being important for MAG function. […]

NgR1(310)-fc R279E = target: T2, NgR1(310)-fc R279E (Homo sapiens, UniProt Q9BZR6, R279E); assay: Analytical ultracentrifugation, R279E mutant receptor; format: binding
T2 construct: made in house; host or cells: mammalian expression vector
T2 sequence (Q9BZR6 27-310 R279E): T1 sequence (Q9BZR6 27-310 R151E) with E125R, R253E
From the text: as §1, §2

NgR1(310)-fc R199E = target: T3, NgR1(310)-fc R199E (Homo sapiens, UniProt Q9BZR6, R199E); assay: Analytical ultracentrifugation, R199E mutant receptor; format: binding
T3 construct: made in house; host or cells: mammalian expression vector
T3 sequence (Q9BZR6 27-310 R199E): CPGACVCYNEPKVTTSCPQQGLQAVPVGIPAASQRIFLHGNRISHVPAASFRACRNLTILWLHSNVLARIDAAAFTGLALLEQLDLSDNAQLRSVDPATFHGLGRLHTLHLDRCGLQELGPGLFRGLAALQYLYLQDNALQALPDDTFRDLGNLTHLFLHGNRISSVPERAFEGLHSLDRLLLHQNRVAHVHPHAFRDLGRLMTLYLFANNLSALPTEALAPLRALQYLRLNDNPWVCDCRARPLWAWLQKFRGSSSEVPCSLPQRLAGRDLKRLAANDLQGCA
From the text: as §1, §2

NgR1(310)-fc = target: T4, NgR1(310)-fc (Homo sapiens, UniProt Q9BZR6); assay: Analytical ultracentrifugation (sedimentation velocity), wild type receptor; format: binding; details: ganglioside 0 to 48 μM (FIG. 3A-C)
T4 construct: made in house; host or cells: mammalian expression vector (pSMED2)
T4 sequence (Q9BZR6 with tags, fused parts or gaps limits assumed): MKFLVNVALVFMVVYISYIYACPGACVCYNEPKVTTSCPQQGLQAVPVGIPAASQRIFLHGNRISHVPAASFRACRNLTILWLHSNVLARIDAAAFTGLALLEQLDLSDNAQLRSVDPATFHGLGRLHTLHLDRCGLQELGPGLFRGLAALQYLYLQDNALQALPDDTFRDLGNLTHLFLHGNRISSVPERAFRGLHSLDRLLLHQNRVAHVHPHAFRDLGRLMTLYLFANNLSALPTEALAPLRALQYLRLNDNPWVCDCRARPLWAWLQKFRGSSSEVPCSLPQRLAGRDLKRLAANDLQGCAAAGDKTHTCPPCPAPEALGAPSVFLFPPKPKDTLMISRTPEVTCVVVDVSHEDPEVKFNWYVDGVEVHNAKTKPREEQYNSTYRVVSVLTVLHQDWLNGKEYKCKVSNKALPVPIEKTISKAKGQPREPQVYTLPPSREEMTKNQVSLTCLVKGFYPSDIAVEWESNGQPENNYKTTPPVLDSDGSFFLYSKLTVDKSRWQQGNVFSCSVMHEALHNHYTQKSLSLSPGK
From the text: as §1, §2

[2] = test system: cerebellar granule neurons; assay: Neurite outgrowth on substrate-bound MAG; format: cell-based, rat; details: tested at up to 200 μg/ml (FIG. 6F)
Description: Cerebellar neurons isolated from postnatal day ⅔ rat pups were cultured over monolayers of 3T3 cells (Doherty et al. (1991) Neuron 6(2):247-58) essentially as previously described (Williams et al. (1994) Neuron 13(3):583-94). Monolayers were established by seeding ˜80,000 cells into individual chambers of an eight-chamber tissue culture slide coated with poly-L-lysine and fibronectin. The cell lines, and monolayers, were maintained in Dulbecco's modified Eagle's medium supplemented with 10% fetal calf serum (FCS). […] Following careful fixation with 4% paraformaldehyde, the neurons were stained with a GAP-43 antibody, and the mean length of the longest neurite per cell was measured for ˜120-150 neurons, again as previously described (Williams et al. (1994) supra). […] The average of total neurite lengths from each neuron was measured automatically by the MetaXpress Neurite Outgrowth module (Molecular Devices, Sunnyvale, Calif.) from at least 200 neurons per well, in triplicate wells per experiment. […]

cerebellar neurons = assay: Neurite outgrowth assay, inhibition by soluble MAG-Fc; format: cell-based, rat; details: MAG-Fc 20 μg/ml, increasing peptide concentrations (FIG. 6E)
Description: Cerebellar neurons isolated from postnatal day ⅔ rat pups were cultured over monolayers of 3T3 cells (Doherty et al. (1991) Neuron 6(2):247-58) essentially as previously described (Williams et al. (1994) Neuron 13(3):583-94). Monolayers were established by seeding ˜80,000 cells into individual chambers of an eight-chamber tissue culture slide coated with poly-L-lysine and fibronectin. The cell lines, and monolayers, were maintained in Dulbecco's modified Eagle's medium supplemented with 10% fetal calf serum (FCS). Cocultures were established by removing the media from the monolayers and seeding ˜6000 dissociated cerebellar neurons into each well in SATO medium (modified from Doherty et al. (1990) Neuron 5(2):209-19; Dulbecco's modified Eagle's medium supplemented with 2% FBS, 33% bovine albumin, 0.62 μg/ml progesterone, 161 μg/ml putrescine, 4 μg/ml L-thyroxine, 0.387 μg/ml selenium, and 3.37 μg/ml tri-iodo-thyronine (components from Sigma-Aldrich, St. Louis, Mo.)). Monolayers were established for 24 hours prior to addition of the neurons and the cultures were maintained for ˜23-27 hr. Following careful fixation with 4% paraformaldehyde, the neurons were stained with a GAP-43 antibody, and the mean length of the longest neurite per cell was measured for ˜120-150 neurons, again as previously described (Williams et al. (1994) supra). For neurite outgrowth on substrate-bound MAG, 96-well plates were coated with a thin layer of nitrocellulose (Bio-Rad, Hercules, Calif.) before incubating with 1 μg/ml of MAG(d1-5) (a chimeric construct containing domains 1-5 of the extracellular portion of MAG) at 4° C. overnight. Wells were subsequently coated with 17 μg/ml of poly-D-lysine (Sigma, St. Louis, Mo.), followed by incubation in Dulbecco's modified Eagle's medium containing 10% FCS. Cerebellar granule neurons were dissociated and seeded at a density of 10^4 cells per well. Cells were cultured for 18-20 h before being fixed with 4% paraformaldehyde and stained with a neuronal-specific anti-III-tubulin antibody, Tuj 1 (Covance, Emeryville, Calif.). The average of total neurite lengths from each neuron was measured automatically by the MetaXpress Neurite Outgrowth module (Molecular Devices, Sunnyvale, Calif.) from at least 200 neurons per well, in triplicate wells per experiment. Results were repeated independently more than three times.
Synthetic peptides were all obtained from a commercial supplier (Multiple Peptide Systems, San Diego, Calif.). All peptides were purified to the highest grade by reverse-phase HPLC and obtained at the highest level of purity (>97%). With all peptides, there was no indication of higher molecular weight species. Where peptide sequences are underlined, this denotes a peptide that has been cyclized via a disulfide bond between the given cysteine residues. All peptides were acetylated (e.g., denoted with “N-Ac-”) and amide blocked (e.g., denoted with “—NH2”). Recombinant MAG-Fc chimera was obtained from R&D Systems (Minneapolis, Minn.) and used at final concentrations ranging from 5-25 μg/ml. The monoclonal antibody to GT1b (clone GMR5) was obtained from Seikagaku America (Falmouth, Mass.) and was used at a final concentration of 20 μg/ml. All reagents were diluted into the coculture media and, in general, added to the cultures just prior to the plating of the neurons. GT1b and GM1 were obtained as gifts from Dr. Gino Toffano (Libero, Italy) and University of Milan, and asialo-GM1 was obtained from Sigma (St. Louis, Mo.). The recombinant NgR1(310)-fc and MAG(d1-5) chimeras were expressed and purified in-house. Pharmacological reagents were obtained from Calbiochem (La Jolla, Calif.) and/or Sigma. For reagents used in cell-surface NgR binding assays, please see Examples 1.5 and 1.7. For reagents used in the cell surface p75NTR-NgR-AP binding assay, please see Example 1.13.
In contrast, a soluble MAG-Fc chimera inhibits neurite outgrowth in a manner that depends upon both ganglioside and NgR function. […]

Substance | reduction of GT1b/NgR1 complex formation (NgR1(310)-fc R151E; R151 mutated) [%] | GT1b binding relative to wild type (NgR1(310)-fc R151E; mutation of arginine 151, GT1b 22 μM) [%] | effect on sedimentation of control antibody [1] | reduction of GT1b/NgR1 complex formation (NgR1(310)-fc R279E; R279 mutated) [%] | GT1b binding relative to wild type NgR (NgR1(310)-fc R279E; mutation of arginine 279, GT1b 22 μM, ratio of ~6.7 S and ~11 S peaks) | reduction of GT1b/NgR1 complex formation (NgR1(310)-fc R199E; R199 mutated) [%] | GT1b binding relative to wild type / residual complex formation (NgR1(310)-fc R199E; mutation of arginine 199, GT1b 22 μM) | interaction with NgR1(310)-fc (shift of sedimentation coefficient) (NgR1(310)-fc) | effect on suppressed neurite outgrowth on MAG substrate [2] | efficacy in inhibiting the MAG response (cerebellar neurons)
GT1b | ~50 | 49 | No effect | ~50 | approximately 56% | ~70 | ~30% and 33% | additional peaks with higher sedimentation coefficients appear in a dose-dependent manner | – | –
N-Ac-c[sGrfkq]-NH2 (XGXXXX; not fully specified; cyclised or stapled) [hriNRL2] | – | – | – | – | – | – | – | – | no significant effect | retain full efficacy
